Laboratory results published in US4401660A, “Ester derivatives of 5-O-mycaminosyl tylonolide and method of using same” (Eli Lilly and Company, priority 1981, dated 1983).
Where two headings read alike, the source gives them in different places.

Experiments:
Mycoplasma synoviae = assay: MIC, broth-dilution microtiter test (Table III); type: cell-based; parameters: unit not given here
Procedure: (§1) The MIC's in Table II were determined by standard agar-dilution assays. The MIC's in Table III were obtained using a conventional broth-dilution microtiter test.

[1] = test system: Pasteurella multocida 68C; assay: MIC, broth-dilution microtiter test (Table III); type: cell-based; parameters: unit not given here
Procedure: as §1

[2] = test system: Pasteurella multocida 17E; assay: MIC, broth-dilution microtiter test (Table III); type: cell-based; parameters: unit not given here; conditions: bovine isolate
Procedure: as §1

Mycoplasma hyorhinis = assay: MIC, broth-dilution microtiter test (Table III); type: cell-based; parameters: unit not given here
Procedure: as §1

[3] = test system: Pasteurella multocida 22A; assay: MIC, broth-dilution microtiter test (Table III); type: cell-based; parameters: unit not given here
Procedure: as §1

[4] = test system: Pasteurella haemolytica 41D; assay: MIC, broth-dilution microtiter test (Table III); type: cell-based; parameters: unit not given here
Procedure: as §1

Staphylococcus aureus = assay: MIC, broth-dilution microtiter test (Table III); type: cell-based; parameters: unit not given here
Procedure: as §1

[5] = test system: Pasteurella haemolytica 23C; assay: MIC, broth-dilution microtiter test (Table III); type: cell-based; parameters: unit not given here
Procedure: as §1

[6] = test system: Pasteurella haemolytica 22C; assay: MIC, broth-dilution microtiter test (Table III); type: cell-based; parameters: unit not given here
Procedure: as §1

[7] = test system: Pasteurella multocida 60A; assay: MIC, broth-dilution microtiter test (Table III); type: cell-based; parameters: unit not given here; conditions: avian isolate
Procedure: as §1

Streptococcus sp. 80 = assay: MIC, broth-dilution microtiter test (Table III); type: cell-based; parameters: unit not given here
Procedure: as §1

Mycoplasma gallisepticum = assay: MIC, broth-dilution microtiter test (Table III); type: cell-based; parameters: unit not given here
Procedure: as §1

[8] = test system: Pasteurella multocida 40G; assay: MIC, broth-dilution microtiter test (Table III); type: cell-based; parameters: unit not given here
Procedure: as §1

[9] = test system: Staphylococcus aureus X1.1; assay: MIC, standard agar-dilution assay (Table II); type: cell-based; parameters: unit not given here
Procedure: as §1

[10] = test system: Staphylococcus aureus V41; assay: MIC, standard agar-dilution assay (Table II); type: cell-based; parameters: unit not given here; conditions: Staphylococcus aureus V41, penicillin-resistant strain
Procedure: as §1

[11] = test system: Streptococcus Group D 9960; assay: MIC, standard agar-dilution assay (Table II); type: cell-based; parameters: unit not given here
Procedure: as §1

[12] = test system: Staphylococcus aureus X400; assay: MIC, standard agar-dilution assay (Table II); type: cell-based; parameters: unit not given here; conditions: Staphylococcus aureus X400, methicillin-resistant strain
Procedure: as §1

[13] = test system: Streptococcus pyogenes C203; assay: MIC, standard agar-dilution assay (Table II); type: cell-based; parameters: unit not given here
Procedure: as §1

[14] = test system: Staphylococcus epidermidis EPI2; assay: MIC, standard agar-dilution assay (Table II); type: cell-based; parameters: unit not given here
Procedure: as §1

[15] = test system: Staphylococcus aureus S13E; assay: MIC, standard agar-dilution assay (Table II); type: cell-based; parameters: unit not given here
Procedure: as §1

[16] = test system: Staphylococcus epidermidis EPI1; assay: MIC, standard agar-dilution assay (Table II); type: cell-based; parameters: unit not given here
Procedure: as §1

[17] = test system: Streptococcus pneumoniae Park I; assay: MIC, standard agar-dilution assay (Table II); type: cell-based; parameters: unit not given here
Procedure: as §1

[18] = test system: Streptococcus Group D X66; assay: MIC, standard agar-dilution assay (Table II); type: cell-based; parameters: unit not given here
Procedure: as §1

[19] = test system: Streptococcus pyogenes C203; assay: ED50 in mice with experimental infections (Table IV); type: in vivo; conditions: doses given 1 and 4 hours postinfection; for ED50: Streptococcus pyogenes
Summary of the method: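 Mice with experimental infections received test compound twice, at 1 and 4 h postinfection. ED50 is the dose in mg/kg (per administration, ×2) protecting 50% of animals.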

Pasteurella multocida = assay: Treatment of Pasteurella infections in chicks (Table V); type: in vivo, one-day-old chicks; conditions: 30 mg/kg by subcutaneous injection one and four hours post challenge; for mortality at 30 mg/kg: Pasteurella multocida, sc, 4 h, read-out: Deaths in Treated Chicks/Number Treated (converted)
Summary of the method: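 One-day-old chicks challenged subcutaneously with avian P. multocida (0.1 ml of 10^-3 dilution of 20-hour tryptose broth culture). Esters given at 30 mg/kg subcutaneously at 1 and 4 hours post challenge. Untreated infected controls, ten per group.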

[20] = C203, oral, read-out: ED50, Oral
[21] = C203, sc, subcutaneous, read-out: ED50, Subcutaneous

SMILES: CCC1OC(=O)CC(O)C(C)C(OC2OC(C)C(O)C(N(C)C)C2O)C(CC=O)CC(C)C(=O)C=CC(C)=CC1COC(=O)Cc1cccnc1 (centres unmarked) [Compound 44, 23-O-(3-Pyridylacetyl)-OMT]
- minimal inhibitory concentration (MIC) (Mycoplasma synoviae): < 0.05
- minimal inhibitory concentration (MIC) [1]: 3.12
- minimal inhibitory concentration (MIC) [2]: 3.12
- minimal inhibitory concentration (MIC) (Mycoplasma hyorhinis): 0.78
- minimal inhibitory concentration (MIC) [3]: 3.12
- minimal inhibitory concentration (MIC) [4]: 6.25
- minimal inhibitory concentration (MIC) (Staphylococcus aureus): 0.39
- minimal inhibitory concentration (MIC) [5]: 6.25
- minimal inhibitory concentration (MIC) [6]: 3.12
- minimal inhibitory concentration (MIC) [7]: 0.78
- minimal inhibitory concentration (MIC) (Streptococcus sp. 80): 0.39
- minimal inhibitory concentration (MIC) (Mycoplasma gallisepticum): 0.78
- minimal inhibitory concentration (MIC) [8]: 3.12
- minimal inhibitory concentration (MIC) [9]: 0.25
- minimal inhibitory concentration (MIC) [10]: 0.25
- minimal inhibitory concentration (MIC) [11]: 0.125
- minimal inhibitory concentration (MIC) [12]: 0.25
- minimal inhibitory concentration (MIC) [13]: 0.015
- minimal inhibitory concentration (MIC) [14]: 0.125
- minimal inhibitory concentration (MIC) [15]: 0.25
- minimal inhibitory concentration (MIC) [16]: 0.125
- minimal inhibitory concentration (MIC) [17]: 0.03
- minimal inhibitory concentration (MIC) [18]: 0.125
- ED50 [19, 20]: 150 mg/kg
- ED50 [19, 21]: 13 mg/kg
- mortality at 30 mg/kg (Pasteurella multocida): 0%

SMILES: CCC1OC(=O)CC(O)C(C)C(OC2OC(C)C(O)C(N(C)C)C2O)C(CC=O)CC(C)C(=O)C=CC(C)=CC1COC(=O)CSc1ccc(Cl)c(Cl)c1 (centres unmarked) [Compound 38, 23-O-[(3,4-Dichlorophenylthio)acetyl]-OMT]
- minimal inhibitory concentration (MIC) (Mycoplasma synoviae): 0.097
- minimal inhibitory concentration (MIC) [1]: 1.56
- minimal inhibitory concentration (MIC) [2]: 1.56
- minimal inhibitory concentration (MIC) (Mycoplasma hyorhinis): 3.12
- minimal inhibitory concentration (MIC) [3]: 3.12
- minimal inhibitory concentration (MIC) [4]: 6.25
- minimal inhibitory concentration (MIC) (Staphylococcus aureus): < 0.05
- minimal inhibitory concentration (MIC) [5]: 6.25
- minimal inhibitory concentration (MIC) [6]: 3.12
- minimal inhibitory concentration (MIC) [7]: 1.56
- minimal inhibitory concentration (MIC) (Streptococcus sp. 80): < 0.05
- minimal inhibitory concentration (MIC) (Mycoplasma gallisepticum): < 0.05
- minimal inhibitory concentration (MIC) [8]: 1.56
- minimal inhibitory concentration (MIC) [9]: 0.125
- minimal inhibitory concentration (MIC) [10]: 0.25
- minimal inhibitory concentration (MIC) [11]: 0.125
- minimal inhibitory concentration (MIC) [12]: 0.25
- minimal inhibitory concentration (MIC) [13]: 0.06
- minimal inhibitory concentration (MIC) [14]: 0.25
- minimal inhibitory concentration (MIC) [15]: 0.125
- minimal inhibitory concentration (MIC) [16]: 0.25
- minimal inhibitory concentration (MIC) [17]: 0.03
- minimal inhibitory concentration (MIC) [18]: 0.125
- ED50 [19, 20]: > 150 mg/kg
- mortality at 30 mg/kg (Pasteurella multocida): 10%

SMILES: CCC1OC(=O)CC(O)C(C)C(OC2OC(C)C(OC(C)=O)C(N(C)C)C2OC(C)=O)C(CC=O)CC(C)C(=O)C=CC(C)=CC1COC(=O)CSc1ccc(Cl)c(Cl)c1 (centres unmarked) [Compound 37, 2',4'-Di-O-acetyl-23-O-[(3,4-dichlorophenylthio)acetyl]-OMT]
- minimal inhibitory concentration (MIC) (Mycoplasma synoviae): 0.78
- minimal inhibitory concentration (MIC) [1]: 0.78
- minimal inhibitory concentration (MIC) [2]: 1.56
- minimal inhibitory concentration (MIC) (Mycoplasma hyorhinis): 6.25
- minimal inhibitory concentration (MIC) [3]: 6.25
- minimal inhibitory concentration (MIC) [4]: 12.5
- minimal inhibitory concentration (MIC) (Staphylococcus aureus): 0.39
- minimal inhibitory concentration (MIC) [5]: 6.25
- minimal inhibitory concentration (MIC) [6]: 6.25
- minimal inhibitory concentration (MIC) [7]: 3.12
- minimal inhibitory concentration (MIC) (Streptococcus sp. 80): < 0.05
- minimal inhibitory concentration (MIC) (Mycoplasma gallisepticum): < 0.05
- minimal inhibitory concentration (MIC) [8]: 3.12
- minimal inhibitory concentration (MIC) [9]: 2
- minimal inhibitory concentration (MIC) [10]: 4
- minimal inhibitory concentration (MIC) [11]: 2
- minimal inhibitory concentration (MIC) [12]: 4
- minimal inhibitory concentration (MIC) [13]: 0.5
- minimal inhibitory concentration (MIC) [14]: 4
- minimal inhibitory concentration (MIC) [15]: 2
- minimal inhibitory concentration (MIC) [16]: 2
- minimal inhibitory concentration (MIC) [17]: 0.5
- minimal inhibitory concentration (MIC) [18]: 2
- ED50 [19, 20]: > 150 mg/kg
- mortality at 30 mg/kg (Pasteurella multocida): 100%

SMILES: CCC1OC(=O)CC(O)C(C)C(OC2OC(C)C(O)C(N(C)C)C2O)C(CC=O)CC(C)C(=O)C=CC(C)=CC1COC(=O)[C@H](O)c1ccccc1 (some centres unmarked) [Compound 42, 23-O-Mandeloyl-OMT]
- minimal inhibitory concentration (MIC) (Mycoplasma synoviae): 0.195
- minimal inhibitory concentration (MIC) [1]: 3.12
- minimal inhibitory concentration (MIC) [2]: 6.25
- minimal inhibitory concentration (MIC) (Mycoplasma hyorhinis): 12.5
- minimal inhibitory concentration (MIC) [3]: 6.25
- minimal inhibitory concentration (MIC) [4]: 3.12
- minimal inhibitory concentration (MIC) (Staphylococcus aureus): 0.78
- minimal inhibitory concentration (MIC) [5]: 6.25
- minimal inhibitory concentration (MIC) [6]: 6.25
- minimal inhibitory concentration (MIC) [7]: 3.12
- minimal inhibitory concentration (MIC) (Streptococcus sp. 80): 0.39
- minimal inhibitory concentration (MIC) (Mycoplasma gallisepticum): 0.39
- minimal inhibitory concentration (MIC) [8]: 1.56
- minimal inhibitory concentration (MIC) [9]: 0.25
- minimal inhibitory concentration (MIC) [10]: 0.5
- minimal inhibitory concentration (MIC) [11]: 0.25
- minimal inhibitory concentration (MIC) [12]: 0.5
- minimal inhibitory concentration (MIC) [13]: 0.125
- minimal inhibitory concentration (MIC) [14]: 0.5
- minimal inhibitory concentration (MIC) [15]: 0.25
- minimal inhibitory concentration (MIC) [16]: 0.25
- minimal inhibitory concentration (MIC) [17]: 0.06
- minimal inhibitory concentration (MIC) [18]: 0.25
- ED50 [19, 20]: > 150 mg/kg
- ED50 [19, 21]: 11 mg/kg
- mortality at 30 mg/kg (Pasteurella multocida): 0%

SMILES: CCC1OC(=O)CC(O)C(C)C(OC2OC(C)C(O)C(N(C)C)C2O)C(CC=O)CC(C)C(=O)C=CC(C)=CC1COP(=O)(Oc1ccccc1)Oc1ccccc1 (centres unmarked) [Compound 48, 23-O-(Diphenylphosphoryl)-OMT]
- minimal inhibitory concentration (MIC) (Mycoplasma synoviae): 0.78
- minimal inhibitory concentration (MIC) [1]: 6.25
- minimal inhibitory concentration (MIC) [2]: 6.25
- minimal inhibitory concentration (MIC) (Mycoplasma hyorhinis): 0.78
- minimal inhibitory concentration (MIC) [3]: 6.25
- minimal inhibitory concentration (MIC) [4]: 6.25
- minimal inhibitory concentration (MIC) (Staphylococcus aureus): 0.39
- minimal inhibitory concentration (MIC) [5]: 12.5
- minimal inhibitory concentration (MIC) [6]: 6.25
- minimal inhibitory concentration (MIC) [7]: 6.25
- minimal inhibitory concentration (MIC) (Streptococcus sp. 80): 0.195
- minimal inhibitory concentration (MIC) (Mycoplasma gallisepticum): 0.78
- minimal inhibitory concentration (MIC) [8]: 6.25
- minimal inhibitory concentration (MIC) [9]: 0.25
- minimal inhibitory concentration (MIC) [10]: 0.25
- minimal inhibitory concentration (MIC) [11]: 0.25
- minimal inhibitory concentration (MIC) [12]: 0.25
- minimal inhibitory concentration (MIC) [13]: 0.125
- minimal inhibitory concentration (MIC) [14]: 0.25
- minimal inhibitory concentration (MIC) [15]: 0.25
- minimal inhibitory concentration (MIC) [16]: 0.25
- minimal inhibitory concentration (MIC) [17]: 0.03
- minimal inhibitory concentration (MIC) [18]: 0.25
- ED50, Oral ([19]; oral): > 150 mg/kg × 2
- ED50, Subcutaneous ([19]; subcutaneous): > 30 mg/kg × 2
- Deaths in Treated Chicks/Number Treated (Pasteurella multocida): 10/10
